# PubChem BioAssay (NCI)
#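 Values below derive from 48-hour exposures of cells grown in 96-well plates, with endpoints linearly interpolated between the two concentrations bracketing the appropriate inhibition level. GI50: concentration for 50% inhibition of growth. TGI: concentration producing complete growth inhibition.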
# Legend:
# Experiment in all cases: inhibition of tumour cell growth, NCI panel, 48 h
# HL-60(TB) leukemia = tested on: HL-60(TB) leukemia
# HCC-2998 colon = tested on: HCC-2998 colon
# NCI-H226 lung = tested on: NCI-H226 lung
# SF-539 CNS = tested on: SF-539 CNS
# CCRF-CEM leukemia = tested on: CCRF-CEM leukemia
# EKVX NSCLC = tested on: EKVX NSCLC
# SK-MEL-5 melanoma = tested on: SK-MEL-5 melanoma
# SNB-19 CNS = tested on: SNB-19 CNS
# PC-3 prostate = tested on: PC-3 prostate
# NCI-H522 lung = tested on: NCI-H522 lung
# NCI/ADR-RES ovarian = tested on: NCI/ADR-RES ovarian
# IGROV1 ovarian = tested on: IGROV1 ovarian
# OVCAR-5 ovarian = tested on: OVCAR-5 ovarian
# T-47D breast = tested on: T-47D breast
# SK-MEL-28 melanoma = tested on: SK-MEL-28 melanoma
# LOX IMVI melanoma = tested on: LOX IMVI melanoma
# SN12C renal = tested on: SN12C renal
# MCF7 breast = tested on: MCF7 breast
# UACC-62 melanoma = tested on: UACC-62 melanoma
# RPMI-8226 leukemia = tested on: RPMI-8226 leukemia
# A549 NSCLC = tested on: A549 NSCLC
# HOP-62 NSCLC = tested on: HOP-62 NSCLC
# SK-OV-3 ovarian = tested on: SK-OV-3 ovarian
# M14 melanoma = tested on: M14 melanoma
# HCT-15 colon = tested on: HCT-15 colon
# DU-145 prostate = tested on: DU-145 prostate
# A498 renal = tested on: A498 renal
# UO-31 renal = tested on: UO-31 renal
# K-562 leukemia = tested on: K-562 leukemia
# CAKI-1 renal = tested on: CAKI-1 renal
# MOLT-4 leukemia = tested on: MOLT-4 leukemia
# SNB-75 CNS = tested on: SNB-75 CNS
# 786-0 renal = tested on: 786-0 renal
# NCI-H23 lung = tested on: NCI-H23 lung
# BT-549 breast = tested on: BT-549 breast
# UACC-257 melanoma = tested on: UACC-257 melanoma
# HOP-92 NSCLC = tested on: HOP-92 NSCLC
# HS 578T breast = tested on: HS 578T breast
# MDA-MB-435 = tested on: MDA-MB-435
# MALME-3M melanoma = tested on: MALME-3M melanoma
# U251 CNS = tested on: U251 CNS
# HT29 colon = tested on: HT29 colon
# NCI-H460 lung = tested on: NCI-H460 lung
# OVCAR-4 ovarian = tested on: OVCAR-4 ovarian
# COLO 205 colon = tested on: COLO 205 colon
# SF-295 CNS = tested on: SF-295 CNS
# HCT-116 colon = tested on: HCT-116 colon
# KM12 colon = tested on: KM12 colon
# SW-620 colon = tested on: SW-620 colon
# SF-268 CNS = tested on: SF-268 CNS
# OVCAR-3 ovarian = tested on: OVCAR-3 ovarian
# TK-10 renal = tested on: TK-10 renal
# ACHN renal = tested on: ACHN renal
# MDA-MB-231 breast = tested on: MDA-MB-231 breast
# OVCAR-8 ovarian = tested on: OVCAR-8 ovarian
compound,measurement,setting,value
ClCCOCCn1cnc2c(Cl)nc(Cl)nc21,GI50,HL-60(TB) leukemia,4.08 µM
same,TGI,HL-60(TB) leukemia,> 100 µM
same,GI50,HCC-2998 colon,1.42 µM
same,TGI,HCC-2998 colon,2.88 µM
same,GI50,NCI-H226 lung,16.3 µM
same,TGI,NCI-H226 lung,33.8 µM
same,GI50,SF-539 CNS,12.1 µM
same,TGI,SF-539 CNS,25.8 µM
same,GI50,CCRF-CEM leukemia,11.7 µM
same,TGI,CCRF-CEM leukemia,> 100 µM
same,GI50,EKVX NSCLC,12.5 µM
same,TGI,EKVX NSCLC,27.7 µM
same,GI50,SK-MEL-5 melanoma,12.5 µM
same,TGI,SK-MEL-5 melanoma,25.5 µM
same,GI50,SNB-19 CNS,16.4 µM
same,TGI,SNB-19 CNS,30.5 µM
same,GI50,PC-3 prostate,14 µM
same,TGI,PC-3 prostate,31.5 µM
same,GI50,NCI-H522 lung,20 µM
same,TGI,NCI-H522 lung,50 µM
same,GI50,NCI/ADR-RES ovarian,17.9 µM
same,TGI,NCI/ADR-RES ovarian,41.4 µM
same,GI50,IGROV1 ovarian,3.34 µM
same,TGI,IGROV1 ovarian,12.7 µM
same,GI50,OVCAR-5 ovarian,15 µM
same,TGI,OVCAR-5 ovarian,28.9 µM
same,GI50,T-47D breast,14.2 µM
same,TGI,T-47D breast,36.2 µM
same,GI50,SK-MEL-28 melanoma,7.09 µM
same,TGI,SK-MEL-28 melanoma,20.1 µM
same,GI50,LOX IMVI melanoma,5.96 µM
same,TGI,LOX IMVI melanoma,20.1 µM
same,GI50,SN12C renal,16.2 µM
same,TGI,SN12C renal,31.8 µM
same,GI50,MCF7 breast,3.57 µM
same,TGI,MCF7 breast,21.4 µM
same,GI50,UACC-62 melanoma,14 µM
same,TGI,UACC-62 melanoma,27.2 µM
same,GI50,RPMI-8226 leukemia,18.6 µM
same,TGI,RPMI-8226 leukemia,> 100 µM
same,GI50,A549 NSCLC,21.6 µM
same,TGI,A549 NSCLC,61.9 µM
same,GI50,HOP-62 NSCLC,15.7 µM
same,TGI,HOP-62 NSCLC,30.5 µM
same,GI50,SK-OV-3 ovarian,16.2 µM
same,TGI,SK-OV-3 ovarian,29.8 µM
same,GI50,M14 melanoma,13.4 µM
same,TGI,M14 melanoma,27.9 µM
same,GI50,HCT-15 colon,4.89 µM
same,TGI,HCT-15 colon,18.9 µM
same,GI50,DU-145 prostate,10.2 µM
same,TGI,DU-145 prostate,21.9 µM
same,GI50,A498 renal,16.2 µM
same,TGI,A498 renal,32.1 µM
same,GI50,UO-31 renal,13.3 µM
same,TGI,UO-31 renal,26.7 µM
same,GI50,K-562 leukemia,15.9 µM
same,TGI,K-562 leukemia,> 100 µM
same,GI50,CAKI-1 renal,2.61 µM
same,TGI,CAKI-1 renal,13.5 µM
same,GI50,MOLT-4 leukemia,24.7 µM
same,TGI,MOLT-4 leukemia,> 100 µM
same,GI50,SNB-75 CNS,13.8 µM
same,TGI,SNB-75 CNS,29.2 µM
same,GI50,786-0 renal,19.4 µM
same,TGI,786-0 renal,44 µM
same,GI50,NCI-H23 lung,12.8 µM
same,TGI,NCI-H23 lung,29.1 µM
same,GI50,BT-549 breast,14.7 µM
same,TGI,BT-549 breast,28.2 µM
same,GI50,UACC-257 melanoma,14.1 µM
same,TGI,UACC-257 melanoma,28.5 µM
same,GI50,HOP-92 NSCLC,18.9 µM
same,TGI,HOP-92 NSCLC,45.5 µM
same,GI50,HS 578T breast,2.51 µM
same,TGI,HS 578T breast,9.05 µM
same,GI50,MDA-MB-435,10.9 µM
same,TGI,MDA-MB-435,24.1 µM
same,GI50,MALME-3M melanoma,13.1 µM
same,TGI,MALME-3M melanoma,28.2 µM
same,GI50,U251 CNS,12.3 µM
same,TGI,U251 CNS,24.7 µM
same,GI50,HT29 colon,19.6 µM
same,TGI,HT29 colon,73.6 µM
same,GI50,NCI-H460 lung,5.57 µM
same,TGI,NCI-H460 lung,19.2 µM
same,GI50,OVCAR-4 ovarian,17.3 µM
same,TGI,OVCAR-4 ovarian,35.5 µM
same,GI50,COLO 205 colon,13.2 µM
same,TGI,COLO 205 colon,27.5 µM
same,GI50,SF-295 CNS,14 µM
same,TGI,SF-295 CNS,29.3 µM
same,GI50,HCT-116 colon,10.8 µM
same,TGI,HCT-116 colon,25.1 µM
same,GI50,KM12 colon,15.9 µM
same,TGI,KM12 colon,29.6 µM
same,GI50,SW-620 colon,6.36 µM
same,TGI,SW-620 colon,20.3 µM
same,GI50,SF-268 CNS,6.82 µM
same,TGI,SF-268 CNS,20.3 µM
same,GI50,OVCAR-3 ovarian,4.68 µM
same,TGI,OVCAR-3 ovarian,15.4 µM
same,GI50,TK-10 renal,18.5 µM
same,TGI,TK-10 renal,60.6 µM
same,GI50,ACHN renal,14.4 µM
same,TGI,ACHN renal,27.5 µM
same,GI50,MDA-MB-231 breast,14.4 µM
same,TGI,MDA-MB-231 breast,28.3 µM
same,GI50,OVCAR-8 ovarian,10.3 µM
same,TGI,OVCAR-8 ovarian,26.5 µM
